ChEMBL document CHEMBL1146193, “Increased genome instability in Escherichia coli lon mutants: relation to emergence of multiple-antibiotic-resistant (Mar) mutants caused by insertion sequence elements and large tandem genomic amplifications” (2007)
In brackets after ≈: the same amount, converted by molar mass.

Assays:
Format in all cases: functional
Escherichia coli [1] = experiment: Antimicrobial activity against Escherichia coli AG100 mutant with argE3 thi-3 rpsL xyl mtl supE44 genotype
Escherichia coli [2] = experiment: Antimicrobial activity against Escherichia coli M013 mutant with AG100 delta-(lon-hupB-ppiD) dupIS5 genotype
Escherichia coli [3] = experiment: Antimicrobial activity against Escherichia coli M043 mutant with AG100 lon4::IS186 marR::IS2 genotype
Escherichia coli [4] = experiment: Antimicrobial activity against Escherichia coli M044 mutant with AG100 lon4::IS186 marR::IS genotype
Escherichia coli [5] = experiment: Antimicrobial activity against Escherichia coli M064 mutant with AG100 lon1::IS186 acrR::IS genotype
Escherichia coli [6] = experiment: Antimicrobial activity against Escherichia coli M073 mutant with AG100 lon2::IS186 acrR::IS5 genotype
Escherichia coli [7] = experiment: Antimicrobial activity against Escherichia coli M074 mutant with AG100 lon2::IS186 acrR::IS genotype
Escherichia coli [8] = experiment: Antimicrobial activity against Escherichia coli M083 mutant with AG100 lon4::IS186 acrR::IS1 genotype
Escherichia coli [9] = experiment: Antimicrobial activity against Escherichia coli M084 mutant AG100 lon4::IS186 genotype
Escherichia coli [10] = experiment: Antimicrobial activity against Escherichia coli M093 mutant with AG100 lon3::IS186 acrR::IS1 genotype
Escherichia coli [11] = experiment: Antimicrobial activity against Escherichia coli M103 mutant with AG100 lon3::IS186 acrR-acrAB genotype
Escherichia coli [12] = experiment: Antimicrobial activity against Escherichia coli M104 mutant with AG100 dupIS3 genotype
Escherichia coli [13] = experiment: Antimicrobial activity against Escherichia coli M114 mutant with AG100 lon4::IS186 marR::IS2 genotype
Escherichia coli [14] = experiment: Antimicrobial activity against Escherichia coli M124 mutant with AG100 lon4::IS186 acrR::IS genotype
Escherichia coli [15] = experiment: Antimicrobial activity against Escherichia coli AG112 mutant with AG100 marR genotype
Escherichia coli [16] = experiment: Antimicrobial activity against Escherichia coli AG112 mutant with marR genotype after 250 generations in 5 ug/ml presence of tetracycline
Escherichia coli [17] = experiment: Antimicrobial activity against Escherichia coli AG112 mutant with marR genotype after 125 generations in absence of tetracycline

Compound: CO[C@H]1/C=C/O[C@@]2(C)Oc3c(C)c(O)c4c(O)c(c(/C=N/N5CCN(C)CC5)c(O)c4c3C2=O)NC(=O)/C(C)=C\C=C\[C@H](C)[C@H](O)[C@@H](C)[C@@H](O)[C@@H](C)[C@H](OC(C)=O)[C@@H]1C [RIFAMPIN]
- MIC (Escherichia coli [1]): 16 µg/mL (≈ 19.4 µM)
- MIC (Escherichia coli [2]): 16 µg/mL (≈ 19.4 µM)
- MIC (Escherichia coli [3]): 24 µg/mL (≈ 29.2 µM)
- MIC (Escherichia coli [4]): 24 µg/mL (≈ 29.2 µM)
- MIC (Escherichia coli [5]): 24 µg/mL (≈ 29.2 µM)
- MIC (Escherichia coli [6]): 24 µg/mL (≈ 29.2 µM)
- MIC (Escherichia coli [7]): 24 µg/mL (≈ 29.2 µM)
- MIC (Escherichia coli [8]): 16 µg/mL (≈ 19.4 µM)
- MIC (Escherichia coli [9]): 16 µg/mL (≈ 19.4 µM)
- MIC (Escherichia coli [10]): 24 µg/mL (≈ 29.2 µM)
- MIC (Escherichia coli [11]): 24 µg/mL (≈ 29.2 µM)
- MIC (Escherichia coli [12]): 16 µg/mL (≈ 19.4 µM)
- MIC (Escherichia coli [13]): 24 µg/mL (≈ 29.2 µM)
- MIC (Escherichia coli [14]): 16 µg/mL (≈ 19.4 µM)

Compound: CCn1cc(C(=O)O)c(=O)c2cc(F)c(N3CCNCC3)cc21 [NORFLOXACIN]
- MIC (Escherichia coli [1]): 0.02 µg/mL (≈ 0.0626 µM)
- MIC (Escherichia coli [2]): 0.13 µg/mL (≈ 0.407 µM)
- MIC (Escherichia coli [3]): 0.38 µg/mL (≈ 1.19 µM)
- MIC (Escherichia coli [4]): 0.25 µg/mL (≈ 0.783 µM)
- MIC (Escherichia coli [5]): 0.19 µg/mL (≈ 0.595 µM)
- MIC (Escherichia coli [6]): 0.19 µg/mL (≈ 0.595 µM)
- MIC (Escherichia coli [7]): 0.19 µg/mL (≈ 0.595 µM)
- MIC (Escherichia coli [8]): 0.25 µg/mL (≈ 0.783 µM)
- MIC (Escherichia coli [9]): 0.13 µg/mL (≈ 0.407 µM)
- MIC (Escherichia coli [10]): 0.25 µg/mL (≈ 0.783 µM)
- MIC (Escherichia coli [11]): 0.25 µg/mL (≈ 0.783 µM)
- MIC (Escherichia coli [12]): 0.25 µg/mL (≈ 0.783 µM)
- MIC (Escherichia coli [13]): 0.38 µg/mL (≈ 1.19 µM)
- MIC (Escherichia coli [14]): 0.25 µg/mL (≈ 0.783 µM)
- MIC (Escherichia coli [15]): 0.38 µg/mL (≈ 1.19 µM)
- MIC (Escherichia coli [16]): 2 µg/mL
- MIC (Escherichia coli [17]): 0.75 µg/mL (≈ 2.35 µM)

Compound: CN(C)[C@@H]1C(O)=C(C(N)=O)C(=O)[C@@]2(O)C(O)=C3C(=O)c4c(O)cccc4[C@@](C)(O)[C@H]3C[C@@H]12 [TETRACYCLINE]
- MIC (Escherichia coli [1]): 2 µg/mL (≈ 4.5 µM)
- MIC (Escherichia coli [2]): 6 µg/mL (≈ 13.5 µM)
- MIC (Escherichia coli [3]): 16 µg/mL (≈ 36 µM)
- MIC (Escherichia coli [4]): 4 µg/mL (≈ 9 µM)
- MIC (Escherichia coli [5]): 8 µg/mL (≈ 18 µM)
- MIC (Escherichia coli [6]): 12 µg/mL (≈ 27 µM)
- MIC (Escherichia coli [7]): 4 µg/mL (≈ 9 µM)
- MIC (Escherichia coli [8]): 4 µg/mL (≈ 9 µM)
- MIC (Escherichia coli [9]): 4 µg/mL (≈ 9 µM)
- MIC (Escherichia coli [10]): 4 µg/mL (≈ 9 µM)
- MIC (Escherichia coli [11]): 6 µg/mL (≈ 13.5 µM)
- MIC (Escherichia coli [12]): 6 µg/mL (≈ 13.5 µM)
- MIC (Escherichia coli [13]): 12 µg/mL (≈ 27 µM)
- MIC (Escherichia coli [14]): 6 µg/mL (≈ 13.5 µM)
- MIC (Escherichia coli [15]): 8 µg/mL (≈ 18 µM)
- MIC (Escherichia coli [16]): 128 µg/mL
- MIC (Escherichia coli [17]): 24 µg/mL (≈ 54 µM)

Compound: CCn1cc(C(=O)O)c(=O)c2ccc(C)nc21 [NALIDIXIC ACID]
- MIC (Escherichia coli [1]): 6 µg/mL (≈ 25.8 µM)
- MIC (Escherichia coli [3]): 8 µg/mL (≈ 34.4 µM)
- MIC (Escherichia coli [4]): 12 µg/mL (≈ 51.7 µM)
- MIC (Escherichia coli [5]): 12 µg/mL (≈ 51.7 µM)
- MIC (Escherichia coli [6]): 8 µg/mL (≈ 34.4 µM)
- MIC (Escherichia coli [7]): 8 µg/mL (≈ 34.4 µM)
- MIC (Escherichia coli [8]): 8 µg/mL (≈ 34.4 µM)
- MIC (Escherichia coli [9]): 6 µg/mL (≈ 25.8 µM)
- MIC (Escherichia coli [10]): 8 µg/mL (≈ 34.4 µM)
- MIC (Escherichia coli [11]): 6 µg/mL (≈ 25.8 µM)
- MIC (Escherichia coli [12]): 8 µg/mL (≈ 34.4 µM)
- MIC (Escherichia coli [13]): 8 µg/mL (≈ 34.4 µM)
- MIC (Escherichia coli [14]): 8 µg/mL (≈ 34.4 µM)
- MIC (Escherichia coli [15]): 12 µg/mL (≈ 51.7 µM)
- MIC (Escherichia coli [16]): 192 µg/mL
- MIC (Escherichia coli [17]): 24 µg/mL (≈ 103 µM)

Compound: O=C(N[C@H](CO)[C@H](O)c1ccc([N+](=O)[O-])cc1)C(Cl)Cl [CHLORAMPHENICOL]
- MIC (Escherichia coli [1]): 4 µg/mL (≈ 12.4 µM)
- MIC (Escherichia coli [3]): 64 µg/mL (≈ 198 µM)
- MIC (Escherichia coli [4]): 32 µg/mL (≈ 99 µM)
- MIC (Escherichia coli [5]): 32 µg/mL (≈ 99 µM)
- MIC (Escherichia coli [6]): 32 µg/mL (≈ 99 µM)
- MIC (Escherichia coli [7]): 48 µg/mL (≈ 149 µM)
- MIC (Escherichia coli [8]): 32 µg/mL (≈ 99 µM)
- MIC (Escherichia coli [10]): 32 µg/mL (≈ 99 µM)
- MIC (Escherichia coli [11]): 24 µg/mL (≈ 74.3 µM)
- MIC (Escherichia coli [12]): 32 µg/mL (≈ 99 µM)
- MIC (Escherichia coli [13]): 64 µg/mL (≈ 198 µM)
- MIC (Escherichia coli [14]): 24 µg/mL (≈ 74.3 µM)
- MIC (Escherichia coli [15]): 24 µg/mL (≈ 74.3 µM)
- MIC (Escherichia coli [16]): 256 µg/mL
- MIC (Escherichia coli [17]): 24 µg/mL (≈ 74.3 µM)

Compound: CC1(C)S[C@@H]2[C@H](NC(=O)[C@H](N)c3ccccc3)C(=O)N2[C@H]1C(=O)O [AMPICILLIN]
- MIC (Escherichia coli [2]): 3 µg/mL (≈ 8.59 µM)
- MIC (Escherichia coli [3]): 6 µg/mL (≈ 17.2 µM)
- MIC (Escherichia coli [4]): 6 µg/mL (≈ 17.2 µM)
- MIC (Escherichia coli [5]): 6 µg/mL (≈ 17.2 µM)
- MIC (Escherichia coli [6]): 6 µg/mL (≈ 17.2 µM)
- MIC (Escherichia coli [7]): 6 µg/mL (≈ 17.2 µM)
- MIC (Escherichia coli [8]): 4 µg/mL (≈ 11.4 µM)
- MIC (Escherichia coli [9]): 3 µg/mL (≈ 8.59 µM)
- MIC (Escherichia coli [10]): 6 µg/mL (≈ 17.2 µM)
- MIC (Escherichia coli [11]): 4 µg/mL (≈ 11.4 µM)
- MIC (Escherichia coli [12]): 3 µg/mL (≈ 8.59 µM)
- MIC (Escherichia coli [13]): 8 µg/mL (≈ 22.9 µM)
- MIC (Escherichia coli [14]): 3 µg/mL (≈ 8.59 µM)
- MIC (Escherichia coli [15]): 6 µg/mL (≈ 17.2 µM)
- MIC (Escherichia coli [16]): 32 µg/mL
- MIC (Escherichia coli [17]): 12 µg/mL (≈ 34.3 µM)
